The compounds below were run against T1, human PDHK2 (hPDHK2) (Homo sapiens, UniProt Q15119) (assay: Inhibitory action of PDHK2 activity (residual PDH activity, NADH absorbance at 340 nm)). Settings: PDH/hPDHK2 complex, PDHK reaction 45 min at room temperature.
T1 construct: made in house; host or cells: Escherichia coli BL21(DE3), pET-17b vector
Assay type: biochemical
Procedure: In the case of human PDHK2 (hPDHK2, NCBI Reference Database Accession number NM_002611.4), modified hPDHK2 cDNA wherein FLAG-Tag sequence was added to the N terminus of hPDHK2 cDNA clone (pReceiver-M01/PDK2-GeneCopoeia) as the base was prepared by polymerase chain reaction (PCR) and ligated to the NdeI/EcoRI site of pET-17b vector (Merck KGaA, Catalog Number 69663-3). The recombinant construct was transformed into Escherichia coli DH5α. The recombinant clones were identified, and plasmid DNA was isolated and subjected to the DNA sequence analysis. One clone which had the expected nucleic acid sequence was selected for expression work.
For expression of hPDHK2 activity, Escherichia coli strain BL21(DE3) cells (Merck KGaA, Catalog Number 69450-4) were transformed with the pET17b vector containing modified hPDHK2 cDNA. The Escherichia coli were grown to an optical density 0.6 ([…]) at 30° C. Protein expression was induced by the addition of 500 μmol/L isopropyl-β-thiogalactopyranoside. The Escherichia coli were cultured at 20° C. for 17-18 hr and harvested by centrifugation. The harvested Escherichia coli was resuspended in a suspension buffer (20 mmol/L HEPES-NaOH, 500 mmol/L sodium chloride, 1% ethylene glycol, 0.1% Pluronic (registered trademark) F-68 (pH 8.0), cOmplete, EDTA-free (Roche) (pH 8.0)), and disrupted by a microfluidizer M-110H (MIZUHO INDUSTRIAL CO., LTD.). The precipitate was removed by centrifugation and the supernatant was added to DDDDK-tagged Protein PURIFICATION GEL (MEDICAL & BIOLOGICAL LABORATORIES CO., LTD., Code No. 3329). DDDDK-tagged Protein PURIFICATION GEL was washed with a washing buffer (20 mmol/L HEPES-NaOH, 500 mmol/L sodium chloride, 1% ethylene glycol, 0.1% Pluronic F-68 (pH 8.0)) and the bound protein was eluted with elution buffer 1 (20 mmol/L HEPES-NaOH, 100 μg/mL peptide (amino acid sequence DYKDDDDK) (SEQ ID NO: 1), 500 mmol/L sodium chloride, 1% ethylene glycol, 0.1% Pluronic F-68 (pH 8.0)). The eluted fractions containing FLAG-Tagged protein were pooled, concentrated by an ultrafiltration method, added to a gel filtration column (HiLoad 26/60 Superdex 200 (GE Healthcare Life Sciences, Code No. 17-1070-01)), and eluted with elution buffer 2 (20 mmol/L HEPES-NaOH, 150 mmol/L sodium chloride, 0.5 mmol/L ethylenediaminetetraacetic acid (EDTA), 1% ethylene glycol, 0.1% Pluronic F-68 (pH 8.0)). The eluted fractions were pooled and preserved at −80° C.
PDH (porcine heart PDH complex, Sigma P7032) and 0.5 μg/mL hPDHK2 were mixed in an assay buffer (50 mmol/L 3-morpholinopropanesulfonic acid (pH 7.0), 20 mmol/L dipotassium hydrogen phosphate, 60 mmol/L potassium chloride, 2 mmol/L magnesium chloride, 0.4 mmol/L EDTA, 0.2% poloxamer, 2 mmol/L dithiothreitol) so that the final concentration of PDH was 0.025 U/mL, and the mixture was incubated at 4° C. overnight to obtain a PDH/hPDHK2 complex solution.
PDH was mixed with the assay buffer so that the final concentration was 0.025 U/mL, and the mixture was incubated at 4° C. overnight to prepare a PDH solution.
The test compounds were diluted with DMSO. To measure an inhibitory action of the test compound on the PDHK activity in the PDH/hPDHK2 complex solution, PDH/hPDHK2 complex solution (20 μL), test compound (1.5 μL) and 1.06 μmol/L ATP (diluted with assay buffer) (8.5 μL) were added to a 384 well microplate (Greiner Bio-One 781801) and PDHK reaction was performed at room temperature for 45 min (test compound well). DMSO (1.5 μL) was added to control wells instead of test compound. In addition, DMSO (1.5 μL) was added to blank wells instead of the test compound, and PDH solution was added instead of the PDH/hPDHK2 complex solution. To measure an inhibitory action of the test compound on the PDHK activity inherent in the PDH solution, a test compound was added and the PDH solution instead of the PDH/hPDHK2 complex solution was added to a blank+test compound well. […]

Row | IC50 | SMILES
1 | 16 nM | C[C@H]1Cn2nc(OC(C)(C)C)cc2-c2cnc([C@@](C)(O)C(F)(F)F)n21 [Example 55]
2 | 6.5 nM | C[C@H]1Cn2c(C(F)(F)F)cnc2-c2cnc([C@@](C)(O)C(F)(F)F)n21 [Example 18]
3 | 8.5 nM | C[C@H]1Cn2c(nnc2C2(F)CC2)-c2cnc([C@@](C)(O)C(F)(F)F)n21 [Example 99]
4 | 13 nM | C[C@H]1Cn2nc(OC(F)F)cc2-c2cnc([C@@](C)(O)C(F)(F)F)n21 [Example 23, (R)-2-((S)-9-(difluoromethoxy)-5-methyl-5,6-dihydroimidazo[1,5-a]pyrazolo[5,1-c]pyrazin-3-yl)-1,1,1-trifluoropropan-2-ol]
5 | 17 nM | C[C@H]1Cn2ncc(F)c2-c2cnc([C@@](C)(O)C(F)(F)F)n21 [Example 44]
6 | 19 nM | C[C@H]1Cn2nc(CO)cc2-c2cnc([C@@](C)(O)C(F)(F)F)n21 [Example 36]
7 | 13 nM | C[C@H]1Cn2nc(C3CC3)cc2-c2cnc([C@@](C)(O)C(F)(F)F)n21 [Example 10]
